Like-named read-outs stand apart in the source and are kept apart here.
Experiments:
[1] = format: physicochemical; settings: for Benzyl alcohol mg/g (55° C.) / Lidocaine mg/g (45° C.): in REVANESSE dermal filler
Method: The benzyl alcohol product was held for 12 weeks at 55° C. which approximates 2 years shelf life; the amount of benzyl alcohol degraded by only 5.75%. In contrast, the amount of lidocaine degraded by 11.61% over 12 weeks at 45° C., which approximates to 1 year shelf life.

[2] = cited from earlier work
[3] = 0.05% to 5% solution; cited from earlier work
[4] = 5% solution, animal studies; cited from earlier work

Row | stability compared with lidocaine [1] | Benzyl alcohol mg/g (55° C.) ([1]; 0 weeks) [mg/g] | Benzyl alcohol mg/g (55° C.) ([1]; 4 weeks) [mg/g] | Benzyl alcohol mg/g (55° C.) ([1]; 8 weeks) [mg/g] | amount degraded ([1]; 12 weeks, 8.7 mg/g) [%] | Benzyl alcohol mg/g (55° C.) ([1]; 12 weeks) [mg/g] | Structure (SMILES) | injection pain and anesthesia duration ([2]; in combination with lidocaine (1%)) | duration of anesthetic effect compared with lidocaine ([2]; in vivo) | injection pain compared with plain lidocaine ([2]; injection) | anesthetic effectiveness [3] | safety [4] | Lidocaine mg/g (45° C.) ([1]; 0 weeks) [mg/g] | Lidocaine mg/g (45° C.) ([1]; 4 weeks) [mg/g] | Lidocaine mg/g (45° C.) ([1]; 8 weeks) [mg/g] | amount degraded ([1]; 12 weeks, 3.1 mg/g) [%] | Lidocaine mg/g (45° C.) ([1]; 12 weeks) [mg/g]
1 | better than lidocaine | 8.7 | 8.7 | 8.6 | 5.75 | 8.2 | OCc1ccccc1 [Benzyl alcohol, benzyl alcohol] | reduces injection pain as well as anesthesia duration | shorter duration than lidocaine | significantly less painful | considered somewhat effect | deemed safe |  |  |  |  | 
2 |  |  |  |  |  |  | CCN(CC)CC(=O)Nc1c(C)cccc1C [Lidocaine, lidocaine, reference compound] |  |  |  |  |  | 3.1 | 2.9 | 2.82 | 11.61 | 2.74

Reference: patent publication US20210244858A1, “SOFT TISSUE FILLER COMPOSITION WITH HYALURONIC ACID AND BENZYL ALCOHOL” (Prollenium Medical Technologies, Inc., priority 2018, published 2021)
